Legend:
[1] = test system: HPV; settings: after three months of treatment, confirmed by smears and biopsies; cited from earlier work
[2] = test system: warts; settings: human, in vivo; cited from earlier work
[3] = in vitro; settings: human
[4] = in vitro; settings: human; remark: listed apart in the source
[5] = test system: ankle wart; experiment: Topical treatment of a large ankle wart, case of a person; type: in vivo, human

Cc1cccc(C)c1OCC(=O)N[C@@H](Cc1ccccc1)[C@@H](O)C[C@H](Cc1ccccc1)NC(=O)[C@H](C(C)C)N1CCCNC1=O [Lopinavir]
women with high-grade disease having normal cervical conditions [1]: 82.6%

O=[N+]([O-])[O-].[Ag+] [silver nitrate, Silver nitrate]
improvement in warts [2]: 26%

C=C1C(=O)O[C@@H]2C[C@@H](C)[C@@H]3C=CC(=O)[C@@]3(C)[C@@H](O)[C@H]12 (racemic) [H. tox, (±)-4-Hydroxy-4a,8-dimethyl-3,3a,4a,7a,8,9,9a-octahydroazuleno[6,5-b]furan-2,5-dione]
IC50 [3]: ~1 µM | IC50 [4]: ~1 µM

CC(=O)Oc1ccccc1C(=O)O [crushed aspirin, aspirin]
wart after treatment was stopped ([5]; treatment stopped): regrew | wart size ([5]; under a commercial band aid for several weeks): slightly reduced in size

— patent US20210196676A1, “TREATMENT OF VIRAL INFECTIONS AND VIRALLY ASSOCIATED LESIONS WITH SEQUITERPENE LACTONES” (The Board of Regents of the University of Texas System, priority 2018, published 2021)
